According to PubChem BioAssay AID1645848:
In brackets after ≈: the same amount, converted by molar mass.

Details: buffer; pH 7.4; 6.0 h; 150.0 µM

Structure (SMILES) | solubility kinetic [µg/mL]
CCOc1cc(-c2nccc3cc(OC)c(OC)cc23)cc(OCC)c1OCC | 13.8 (≈ 34.6 µM)
NC(=O)C(=O)N/N=C/c1ccc([N+](=O)[O-])o1 | > 33
Cc1cnc(-c2ccccc2C(F)F)nc1NCC1CN(c2cnccn2)C1 | > 56
COc1ccccc1CNc1ccc(S(=O)(=O)Nc2nccs2)cc1 | 37.4 (≈ 99.7 µM)
COc1cccc(CNc2ccc(C(=O)Nc3nccs3)cc2)c1O | < 1
CC(C)(C)C(=O)N1CCN(c2nccc(Nc3ccccc3Cl)n2)CC1 | 26.3 (≈ 70.3 µM)
Cc1cc(-c2nnc3n2CCCCC3)c(C)n1-c1ccc(Cl)cc1 | 25.9 (≈ 75.9 µM)
CC(C)c1ccccc1-c1nc(NCc2ccc(-c3cccnc3)cc2)c2ccccc2n1 | < 1
NC[C@H](O)c1ccc(O)c(O)c1 | > 25
Fc1ccc(Nc2nc(-c3ccccc3)cc(-c3ccncc3)n2)cc1F | < 1
NC(=O)C1CCN(c2nc(-c3ccc4c(c3)OCCO4)cs2)CC1 | 34.6 (≈ 100 µM)
CCN1CCN(C(=O)c2cc(-c3ccc(F)cc3)c3nncn3n2)CC1 | > 52
O=C1CCCC2=C1C1(CCSC1)N=C(Nc1nc3ccccc3o1)N2 (stereo not drawn) | < 1
CCn1c(C)c(C(C)=O)c(C)c1C(=O)Nc1cccc([S+](=O)([O-])N(C)C)c1 | 43.4 (≈ 111 µM)
CCOc1ccc(CCNC(=O)c2cc3sccc3n2Cc2ccc(-n3cncn3)cc2)cc1OCC | < 1
O=c1[nH]nc(Sc2ncc([N+](=O)[O-])s2)n1-c1ccc2c(c1)OCCO2 | 28.7 (≈ 75.6 µM)
Cc1ccccc1-c1nc(NCc2ccc(-c3cccnc3)cc2)c2ccccc2n1 | < 1
COc1cccc(C(=O)Nc2nnc(S(=O)(=O)N3CCOCC3)s2)c1 | > 57
CC1(C)C[C@@H]2C[C@@](C)(CN2S(=O)(=O)c2ccc(C(=O)Nc3ccc(Cl)c(S(=O)(=O)N4CCOCC4)c3)cc2)C1 | < 1
COc1ccc(-c2ccc3nc(-c4cc(C)cc(C)c4)oc3c2)c(OC)c1OC | < 1
CCOc1ccc(-c2cn3c(n2)sc2cc(C(=O)NCCCN(CC)CC)ccc23)cc1 | > 67
CCCN1CNc2c(c(=O)[nH]c(=S)n2CCc2cccc(Cl)c2Cl)C1 | 13.4 (≈ 33.6 µM)
O=S(=O)(Nc1ccc2ccccc2c1)c1ccc(NCc2cccc(Cl)c2O)cc1 | < 1

Structure (SMILES) | solubility kinetic [µg/mL]
COc1ccc(CCn2c(N)cc(=O)[nH]c2=S)cc1OC | > 45
Cc1ccc(-c2csc(Nc3ccc(S(=O)(=O)Nc4nccs4)cc3)n2)cc1C | < 1
Cc1ccnc(NC(=S)N2CCCC(Nc3cccc(C(F)(F)F)c3)C2)c1 (stereo not drawn) | 11.6 (≈ 29.5 µM)
COc1ccc(-n2nc(C3CCN([S+](=O)([O-])c4cccc(C(F)(F)F)c4)CC3)[nH]c2=O)cc1 | < 1
O=C1c2ccccc2C2=Nc3ccccc3SC(c3ccccc3F)C12 (stereo not drawn) | < 1
COc1ccc2nc(C)cc(Nc3ccc(Cl)c(Cl)c3)c2c1 | < 1
COc1cc([C@@H](CC(=O)O)c2ccc(C)c(CN3C[C@@H](C)Oc4ccccc4S3(=O)=O)c2)cc2nnn(C)c12 | > 81
CCOC(=O)C1CCN(C(=O)C(C)(C)NC(=O)Nc2ccc(Cl)cc2Cl)CC1 | 37 (≈ 86 µM)
C[C@H]1[C@@H](CCC(=O)Nc2ccc(F)cc2)O[C@@H]2O[C@]3(C)CC[C@@H]4[C@H](C)CC[C@@H]1[C@@]24OO3 | 24 (≈ 55.3 µM)
Cc1cc2ccccc2n1CC(=O)NC1CCCCC1 | 3.41 (≈ 12.6 µM)
CCc1ccc(NC(=O)c2[nH]c(C)c(C(C)=O)c2C)cc1S(=O)(=O)Nc1cccc(C#N)c1 | 1.67 (≈ 3.59 µM)
COc1cccc(CNc2ccc(S(=O)(=O)Nc3nc(C)c(C)s3)cc2)c1O | 1.83 (≈ 4.35 µM)
COc1ccc(OC)c(-n2c3c(cc(-c4nc(-c5ccc(Cl)cc5)cs4)c2=O)C(=O)CC(C)(C)C3)c1 | < 1
Fc1cc(Nc2nc(-c3ccncc3)nc3ccccc23)ccc1-c1ccncc1 | < 1
CCOC(=O)c1[nH]c(C)c(CCC(=O)N2CCN(c3cccc(C)c3C)CC2)c1C | < 1
CN(C)c1cccc(-c2cnc(Nc3cccnc3)c3c2CCO3)c1 | < 1
Cc1cc(N=Nc2ccc(S(=O)(=O)Nc3ccccn3)cc2)c(N)cc1O | 3.69 (≈ 9.63 µM)
N#Cc1ccc(NS(=O)(=O)c2ccc(NC(=O)Cc3ccc(Cl)c(Cl)c3)cc2)cc1 | < 1
COc1ccc(Nc2nnc(-c3ccc(C)c(S(=O)(=O)NCc4nc5ccccc5[nH]4)c3)c3ccccc23)cc1 | < 1
CN(C)c1ccc(-c2csc(N3CCC(C(N)=O)CC3)n2)cc1 | 3.78 (≈ 11.4 µM)
Fc1cc(Nc2nc(-c3ccncc3)nc3ccccc23)ccc1-c1cccc(OC(F)F)c1 | < 1
NC(=O)C1CCN(c2nc(-c3cccnc3)cs2)CC1 | > 43
O=C1CCCC2=C1C(c1[nH]ncc1Cl)N=C(Nc1nc3cccc(Cl)c3o1)N2 (stereo not drawn) | < 1

Structure (SMILES) | solubility kinetic [µg/mL]
O=C1NC(=O)C(c2cnc3ccccn23)=C1c1cn2c3c(cccc13)CN(C(=O)N1CCOCC1)CC2 | > 73
COc1cccc2nc(-c3cccs3)nc(NN3C(=O)C=C(C)C3=O)c12 | > 54
Cc1cc(C)nc(NC(=S)N2CCN(c3ccc(F)cc3F)CC2)c1 | 24.8 (≈ 68.4 µM)
C=Cc1ccc(C(=O)N2CCCC(CCC(=O)N3CCN(c4ccccn4)CC3)C2)cc1 (stereo not drawn) | > 64
NC(=O)N1CCN(c2nc(-c3ccc(Br)cc3)cs2)CC1 | 1.84 (≈ 5.01 µM)
COc1cccc(NS(=O)(=O)c2ccc(NCc3cccc(OC)c3O)cc2)c1 | 1.92 (≈ 4.64 µM)
COc1ccccc1OCCNCC(O)COc1cccc2[nH]c3ccccc3c12 (stereo not drawn) | > 60
COc1cc2nccc(Oc3ccc(NC(=O)C4(C(=O)Nc5ccc(F)cc5)CC4)cc3)c2cc1OC | < 1
CCOC(=O)c1nnc(N[S+](=O)([O-])c2ccc(NC(=O)Cc3ccc(Cl)c(Cl)c3)cc2)s1 | > 76
Cc1ccc2oc(NC3=NC(c4[nH]ncc4Cl)C4=C(CCCC4=O)N3)nc2c1 (stereo not drawn) | 1.35 (≈ 3.41 µM)
COc1ccc2c(c1)CN(C(=O)CCN1CCC(Cc3ccccc3)CC1)CCS2 | > 63
O=S(=O)(Nc1nccs1)c1ccc(Nc2nc(-c3ccc(F)cc3)cs2)cc1 | 2.36 (≈ 5.46 µM)
O=C(Nc1ncc(Cc2ccc(C(F)(F)F)cc2)s1)c1ccc(-c2cccnc2)o1 | < 1
CC[C@@H](C)Nc1cc(C(=O)NC2CC3CCC(C2)N3c2ccc(C(=O)C3CC3)cn2)c(C)cc1C(N)=O (stereo partly drawn) | < 1
CCC(CC)c1cc([C@H]2CN3CC[C@H]2C[C@@H]3CNS(=O)(=O)c2cccs2)nc(-c2ccncc2)n1 | 52.2 (≈ 102 µM)
CC1Cc2cc(S(=O)(=O)NCc3ccc(N(C)C)cc3)ccc2N1C(=O)C1CCC1 (stereo not drawn) | 3.08 (≈ 7.2 µM)
COc1ccc(OCc2ccc(-c3nc(C#N)c(NC(C)c4ccccc4)o3)o2)cc1 (stereo not drawn) | < 1
CCOc1ccc(CCNC(=O)c2cc3sccc3n2C)cc1OCC | 8.05 (≈ 21.6 µM)
CC(C)N(CCCNC(=O)Nc1ccc(C(C)(C)C)cc1)C[C@H]1O[C@@H](n2ccc3c(N)ncnc32)[C@H](O)[C@@H]1O | > 80
CCN(CC)c1ccc(Nc2nc(Cl)ncc2Br)cc1 | 4.94 (≈ 13.9 µM)
CC(=O)Nc1ccc(S(=O)(=O)Nc2nccs2)cc1 | > 44

Further lines, results first:

solubility kinetic [µg/mL] | Structure (SMILES)
35.2 (≈ 88.3 µM) | Cc1cccc(-n2cnc3cc(C(=O)N4CCC(Br)CC4)ccc32)c1
< 1 | Fc1ccc(Nc2nc(-c3ccncc3F)nc3ccccc23)cc1F
< 1 | CC(C)COc1ccc(-c2ccc(=O)n(CC(=O)NCCc3ccccc3)n2)cc1
5.36 (≈ 14.8 µM) | COC(=O)c1ccnc(-c2cc(C(=O)NCCc3ccccc3)ccn2)c1
< 1 | CC(=O)Nc1nc(-c2ccc3c(c2)CCN3C(=O)c2ccccc2C)c(C)s1
> 51 | CC(=O)Nc1ccc(-c2csc(N3CCC(C(N)=O)CC3)n2)cc1
< 1 | O=C(Nc1ccccc1)C1CC(=O)N(c2n[nH]c3cc(Br)ccc23)C1 (stereo not drawn)
< 1 | Cc1ccc(NC(=O)N2CCN(c3nc(N)nc4sc(-c5cccnc5)nc34)CC2)cc1
< 1 | CNc1nc(C#N)c(-c2cccc3ccccc23)o1
15.8 (≈ 37.9 µM) | COc1ccc(NC(=O)c2c(C)cccc2C)cc1[S+](=O)([O-])N1CCCCCC1
< 1 | NC(=O)C1CCN(c2nc(-c3ccc(Br)cc3)cs2)CC1
< 1 | Cc1ccc(CC(=O)Nc2nc(-c3ccc4c(c3)CCN4C(=O)c3ccccc3C)c(C)s2)cc1C
16.7 (≈ 59.5 µM) | O=c1cc(N2CCOCC2)oc2c1ccc1ccccc12
24.5 (≈ 97.5 µM) | Oc1ccc(CNc2cccnc2)c2cccnc12
34 (≈ 69.9 µM) | O=C(Nc1ccc(N2CCC(N3CCCCC3)CC2)c(C(=O)O)c1)c1ccc(Br)cc1
41.3 (≈ 116 µM) | COc1ccc(NC2CCCN(C(=O)CCc3ccccc3F)C2)cc1 (stereo not drawn)

solubility kinetic [µg/mL] | Structure (SMILES)
49.9 (≈ 139 µM) | COc1cccc(CN2CCNc3cc(Nc4ccccc4)ncc3C2)c1
1.42 (≈ 3.7 µM) | Cc1ccccc1N(C)C1CN([S+](=O)([O-])c2cccc(C(F)(F)F)c2)C1
< 1 | CCOc1ccccc1N(CC(=O)Nc1cc(OC)ccc1OC)S(=O)(=O)c1ccccc1
< 1 | Cc1ccc(-n2nc3c(N4CCCC(C(=O)NCc5ccccc5C)C4)nnc(C)c3c2C)cc1 (stereo not drawn)
< 1 | Fc1cc(Nc2nc(-c3ccncc3)nc3ccccc23)ccc1N1CCCCC1
> 55 | Cc1ccc(C)c(S(=O)(=O)NCC2CN(Cc3ccccc3)CCO2)c1 (stereo not drawn)
< 1 | O=C(Nc1cccc(C(F)(F)F)c1)c1cc2nc(-c3ccccc3)cc(C(F)(F)F)n2n1
< 1 | O=C(Cn1c2ncccc2c(=O)n1-c1ccccc1)Nc1ccc(Cl)cc1C(F)(F)F
56.1 (≈ 112 µM) | CC(=O)Nc1ncc(S(=O)(=O)Nc2cnccc2C(=O)Nc2nc(-c3ccccc3)cs2)s1
15.6 (≈ 43.8 µM) | Cc1cc(-c2nnc3n2CCCCC3)c(C)n1-c1cccc2ccccc12
< 1 | COc1cccc(OC)c1C(=O)Nc1ccccc1C(=O)Nc1cccc(C(F)(F)F)c1
< 1 | COC(=O)CNC(=O)c1nc(-c2ccc(F)cc2)c2ccccn12
20.1 (≈ 38.8 µM) | O=[S+]([O-])(Nc1ccc(N2CCNCC2)cc1)c1ccc(NCc2ccc(Br)cc2O)cc1
< 1 | CC(=O)Nc1ccc(C(=O)Nc2ccc3c(c2)N(C2CCCC2)C(=O)c2ccccc2S3)cc1
< 1 | FC(F)(F)c1ccc(CN2CCNc3cc(Nc4ccccc4)ncc3C2)cc1
